Test results: a melting point compilation (Tetko et al.)

| SMILES | melting point |
| --- | --- |
| Cc1ccc(C#N)c(C#N)c1 | 118 to 121 °C |
| CCOCOC(=O)c1ccccc1Nc1c(Cl)ccc(C)c1Cl | 73.5 °C |
| CN(C)c1ccc(C(Br)=NNc2ccc([N+](=O)[O-])cc2)cc1 | 188 °C |
| Cc1sc(N)nc1-c1ccccc1 | 110 °C |
| O=[N+]([O-])c1ccc(-c2csc3nc4ccccc4n23)cc1 | 232 to 235 °C |
| CC(=O)CS(C)(=O)=O | 54 °C |
| Cc1nc2ccccc2n1CCc1nnc(S)n1N=Cc1ccccc1Cl | 250 °C |
| Cc1ccc([C@H]2O[C@@H](c3ccc(C)cc3)[C@H](C)C(=O)[C@@H]2C)cc1 | 140 °C |
| COC(=O)CC(=O)c1cncc(Br)c1 | 88 to 93 °C |
| C(=C(c1ccccc1)c1ccccc1)=C(c1ccccc1)c1ccccc1 | 140 °C |
| O=C(O)CN=C(S)C(=S)NCC(=O)O | 220 °C |
| CC(=O)Nc1ccccc1Br | 99 °C |
| O=C(Cl)c1cc2c(Cl)cc(Cl)cc2[nH]1 | 173 to 175 °C |
| CC(=O)Oc1c(-c2cccc(-c3[nH]c4cc([N+](=O)[O-])ccc4c3OC(C)=O)c2)[nH]c2cc([N+](=O)[O-])ccc12 | 304 °C |
| FC(F)(F)c1cc(-c2n[nH]c(=S)[nH]2)cc(C(F)(F)F)c1 | 280 °C |
| O=C(O)CNc1ccccc1C(=O)O | 218 °C |
| O=P(OC(Cl)CCCl)(OC(Cl)CCCl)OC(Cl)CCCl (stereo unspecified) | 26.7 °C |
| CC(=O)OC(OC(C)=O)c1ccccc1 | 46 °C |
| CCOC(=O)C(=O)c1ccc(Br)s1 | 70 to 71 °C |
| CCOC(=O)CCC(N[P+]([O-])(OC)C(C)NC(=O)CCCCN1C(=O)c2ccccc2C1=O)C(=O)OCC (stereo unspecified) | 81 °C |
| CCOC(=O)c1cc(-c2ccco2)on1 | 49 to 50 °C |
| c1ccc(Cc2nc3ccccc3[nH]2)cc1 | 187 °C |
| Nc1ncnc2c1ccn2C1OC(CO)C(O)C1O (stereo unspecified) | 247 °C |
| CC[C@H](C)[C@H](NC(=O)OC(C)(C)C)C(=O)O | 69 °C |
| NS(=O)(=O)c1cc([N+](=O)[O-])c(Cl)s1 | 160 to 162 °C |
| O=Cc1cccn1-c1cc(Cl)cc(Cl)c1 | 150 to 152 °C |

| SMILES | melting point |
| --- | --- |
| CC(=O)c1c(C(C)C)cc(C(C)C)cc1C(C)C | 87 °C |
| CCCc1ccc(C(C)=NO)cc1 | 48 to 50 °C |
| c1ccc(Cc2cc3ccccc3cn2)cc1 | 64 °C |
| CC(=O)CCc1oc2c([N+](=O)[O-])cccc2c1-c1ccc(C)o1 | 103 °C |
| CCOC(=O)NC(=S)Nc1cccc(C)n1 | 127 to 129 °C |
| C=COC(=O)C(CC)CCCC (stereo unspecified) | -90 °C |
| Brc1nc(Br)c(Br)[nH]1 | 208 to 212 °C |
| CC(C)COC=O | -95.8 °C |
| CNC(=O)Sc1ccc(OS(C)(=O)=O)cc1 | 138 °C |
| O=[N+]([O-])c1ccc(Oc2ccccc2)cc1 | 58 °C |
| O=C(Nc1cc2c(cc1/C=C/c1ccccc1)CC(c1ccccc1)N2C(=O)c1ccccc1)c1ccccc1 (stereo unspecified) | 250 °C |
| Fc1cc(Br)ccc1Br | 34 °C |
| CC(C)(C)OC(=O)NC1(C(=O)O)CCc2ccccc21 (racemic) | 156 to 159 °C |
| COc1ccc(C(C)=CC(=O)O)c(OC)c1 | 149 °C |
| CC(=O)NC1C2CCC(C)(C1NC(C)=O)C2(C)C (stereo unspecified) | 309 °C |
| CC(C)CC1Nc2cc(Cl)c(S(N)(=O)=O)cc2S(=O)(=O)N1 (stereo unspecified) | 222 °C |
| Cc1cc2nsnc2cc1Cl | 85 to 86 °C |
| Brc1ccc2c(c1)OCCOCCOCCOCCOCCO2 | 79 to 83 °C |
| CC1CNC(C(O)(C2=NCC(C)N2)C2=NCC(C)N2)=N1 (stereo unspecified) | 178 to 180 °C |
| c1ccc2cc(P(c3ccc4ccccc4c3)c3ccc4ccccc4c3)ccc2c1 | 228 °C |
| CCOC(=O)c1ccc(OC)c(OC)c1Cl | 50 to 52 °C |
| CC(C)(C)OC(=O)N1CCC(c2nc(CO)cs2)CC1 | 97 to 101 °C |
| CSC#N | -5 °C |
| CCCCCCCOc1ccc(N=[N+]([O-])c2ccc(OCCCCCCC)cc2)cc1 | 73 to 122 °C |
| CCOc1ccc(C=O)cc1OCC | 22 °C |
| CCOC(CC(OCC)OCC)OCC | -90 °C |

| SMILES | melting point |
| --- | --- |
| O=C(OCCO)c1ccccc1O | 37 °C |
| O=c1nc2ccccc2nc(C(F)(F)F)c1NNc1cccc2ccccc12 | 171 °C |
| C=COC(C)=O | -93.2 °C |
| S=c1nnc(-c2ccccc2)c(Nc2ccccc2Cl)[nH]1 | 314 °C |
| COc1ccc(CCNCC(O)COc2cccc(C)c2)cc1OC (stereo unspecified) | 138 °C |
| COC(=O)c1cc(OC)c(C)c(OC)c1 | 104 °C |
| Cc1ccc(S(=O)(=O)n2ccnc2)cc1 | 75 to 80 °C |
| Cc1c(Br)cc(N)c(N)c1C | 70 to 74 °C |
| N#CCCc1ccc(O)cc1 | 56 °C |
| NNC(=O)CSc1ccccc1[N+](=O)[O-] | 161 to 171 °C |
| O=C(O)c1cc(F)c(Cl)cc1F | 153 to 158 °C |
| CC(=O)CCc1ccc(CCC(C)=O)cc1 | 55 to 56 °C |
| CC12CCCC1C1CCC(CC(=O)O)C(C)(CC(=O)O)C1CC2 (stereo unspecified) | 229 °C |
| FCCCl | -50 °C |
| Nc1ccc(Br)nc1 | 77 °C |
| C[C@]12CCC(=O)C=C1C(=O)C[C@@H]1[C@@H]2CC[C@@]2(C)[C@H]1CCC21OCCO1 | 162 °C |
| Clc1cc2c(cc1Cl)Oc1cc(Br)c(Br)cc1O2 | 316 °C |
| O=c1[nH]c2ccccc2n1CCCCl | 115 to 125 °C |
| Clc1c(Cl)c(Cl)c2c(c1Cl)OC1Cc3ccccc3C1O2 (stereo unspecified) | 159 °C |
| Brc1cncc(Br)c1 | 112 °C |
| c1ccc(-c2cc3ccccn3c2)cc1 | 211 to 214 °C |
| O=C(/C=C/c1ccco1)c1ccc(O)cc1 | 163 °C |
| CCOC(=O)C(C#N)=C1Oc2ccccc2N1C | 135 to 137 °C |
| CCOC(=O)c1c(-c2ccccc2)csc1NC(=O)CN(CC)CC | 93 to 94 °C |
| CCOC(=O)C1C(c2ccc(F)cc2)C(C(=O)OCC)C(O)(C(F)(F)F)NC1(O)C(F)(F)F (stereo unspecified) | 84 °C |
| CCC(C)(C)c1ccc(O)c(C(C)(C)CC)c1 | 25 °C |

| SMILES | melting point |
| --- | --- |
| CC(C)NC(=O)C(Br)C(C)(C)C (stereo unspecified) | 128 to 130 °C |
| COc1cccc(C(=O)O)c1OC | 123 °C |
| CC(O)c1ccccc1 (stereo unspecified) | 20 °C |
| O=c1cc(C(F)(F)F)c2cc(Cl)c(O)cc2o1 | 178 to 182 °C |
| O=C(c1ccccc1)c1noc(-c2ccc3ccccc3c2)c1S(=O)(=O)c1ccccc1 | 178 °C |
| CC(=O)N1CC(O)CC1C(=O)O (stereo unspecified) | 132 °C |
| CCCCCCCCCCCCCCCCCCC1CCCCC1 | 41.6 °C |
| CC(C)[C@H](NC(=O)OCC1c2ccccc2-c2ccccc21)C(=O)O | 143 to 147 °C |
| Cc1ccc(C=O)cc1[N+](=O)[O-] | 46 °C |
| CC1=NNC(=O)C1=Cc1c(O)c2cccc(C)c2[nH]c1=O | 242 °C |
| CCOc1nc2ccccc2c(=O)n1Cc1ccccc1 | 96 to 97 °C |
| COc1cccc(-c2ccc(C(=O)O)o2)c1 | 169 to 170 °C |
| CSc1nc2cc([N+](=O)[O-])ccc2[nH]1 | 211 to 212 °C |
| CCNc1cccc(O)c1 | 62 °C |
| FC(F)(F)C1N=NC(N=Cc2ccc(Cl)cc2)=N1 (stereo unspecified) | 234 °C |
| c1ccc(CCc2ccccn2)cc1 | -3 °C |
| Nc1cccc(C=O)c1 | 30 °C |
| CC(=O)OC1CC2C3CCC(C(C)CCCC(C)C)C3(C)CCC2C2(C)CCC(=O)CC12O (stereo unspecified) | 161 °C |
| c1ccc(-c2cc3cc4cc(-c5ccccc5)[nH]c4cc3[nH]2)cc1 | > 270 °C |
| Cc1cc([N+](=O)[O-])ccc1F | 39 °C |
| NS(=O)(=O)c1ccccc1OC(F)(F)F | 188 °C |
| Cc1nc2ccccn2c1Br | 73 to 74 °C |
| O=c1[nH]sc2ccccc12 | 156 °C |
| CC(C)P(c1ccccc1)c1ccccc1 | 40 °C |
| O=C1c2ccccc2C(=O)c2c1cccc2[N+](=O)[O-] | 232 °C |
| CCOC(=O)c1nn(-c2ccc(C)cc2)c(C)c1C(=O)c1noc(-c2ccc(C)cc2)c1S(=O)(=O)c1ccccc1 | 180 °C |

| SMILES | melting point |
| --- | --- |
| O=S(=O)(Cl)c1c(Cl)cc(Br)cc1Cl | 45 °C |
| CC(C)(C)c1ccc(C(=O)c2ccccc2)cc1 | 40 °C |
| O=Cc1ccc(N2CCOCC2)cc1 | 66 °C |
| N#CC(CCc1ccc(Cl)cc1)(Cn1cncn1)c1ccccc1 (stereo unspecified) | 126 °C |
| CCCCC=CCCCCCCCCOC(C)=O | 1.3 °C |
| NC(=S)CS(=O)(=O)Cc1ccco1 | 128 to 130 °C |
| Cc1cc(=O)oc2[nH]nc(C)c12 | 251 to 252 °C |
| CCCCCCCCCOC(C)=O | -26 °C |
| CC1(C)CCC(C)(C)C1 | -88.4 °C |
| COc1ccc(-c2ccc(S(=O)(=O)NCC(=O)O)cc2)cc1 | 186 °C |
| CC(C)(C)OC(=O)CC(NC(=O)OCC1c2ccccc2-c2ccccc21)C(=O)O (stereo unspecified) | 147 to 151 °C |
| OCCOc1cccc2ccccc12 | 45 °C |
| COc1cc(C(C)=O)cc(OC)c1OC | 81 °C |
| NC(CC(=O)O)c1ccccc1 (racemic) | 222 °C |
| CCOC(=O)C1N=C(c2ccccc2F)c2cc(Cl)ccc2NC1=O (stereo unspecified) | 194 °C |
| Cc1cc(S(=O)(=O)c2ccccc2)ccc1NS(=O)(=O)C(F)(F)F | 143 °C |
| C[Si](C)(C)C1=CC2CCCCC2C1=O (stereo unspecified) | 59 °C |
| OCc1ccc(N2CCCC2)nc1 | 61 to 62 °C |
| CC1=NN(c2ccc(C)cc2)C(=O)C1 | 138 °C |
| O=S(=O)(Cl)Cc1ccccc1F | 55 to 56 °C |
| c1ccc(P(c2ccccc2)c2ccccc2Oc2ccccc2P(c2ccccc2)c2ccccc2)cc1 | 184 to 187 °C |
| Cn1ccccc1=O | 31 °C |
